Measurements published in PMC4569384, “[^11C]MADAM Used as a Model for Understanding the Radiometabolism of Diphenyl Sulfide Radioligands for Positron Emission Tomography (PET)” (PLoS ONE, 2015).
Like-named read-outs stand apart in the source and are kept apart here.

How the values were obtained:
[1] = set-up: method as in PMID 17096093, PMID 18800204; conditions: cited from earlier work
[2] = Quantification of MADAM and metabolites in HLM incubations by UHPLC/Q-ToF-MS; type: in vitro ADME, human; conditions: for Concentration in HLM incubation: MADAM 10 μM initial
Description: (§1) MADAM and/or [^11C]MADAM (5–15 MBq) were incubated with HLM and RLM (0.5 mg/mL) at 37°C in 1 mL of 0.05 M potassium phosphate buffer (pH 7.4) containing 5 mM NADPH. Experiments were performed with MADAM concentrations of 1 and 10 μM. The incubation times were the following: […] (RLM experiments); 10, 45 and 90 min (HLM experiments). The incubation was stopped by adding an equal volume of ice-cold acetonitrile. The mixture was then vortexed and centrifuged and the supernatant was removed, evaporated. The residue was reconstituted in 150 μL mobile phase before being analyzed by radio-HPLC and UHPLC/Q-ToF-MS as described below. Control incubations in the absence of microsomes, MADAM or NADPH were also performed to assure that the observed peaks corresponded to MADAM metabolites.
(§2) The analyses were performed on a Waters (Milford, MA, USA) Acquity Ultra Performance LC^TM binary solvent manager coupled to a photodiode array detector and Waters (Micromass UK Limited, Manchester, UK) Q-Tof Premier. All the samples (10 μL) were injected onto a Waters Ethylene Bridged Hybrid (BEH) C18 column (2.1 x 50 mm, 1.7 μm) and eluted by a 5 min linear gradient starting from 100% water containing 0.1% formic acid and ending with 30% acetonitrile containing 0.1% formic acid at a flow rate of 0.5 mL/min. Positive electrospray ionization (+ESI) in V-mode with an extended dynamic range was used under the following conditions: capillary 3.5 kV, sampling cone 25 V, extraction cone 4.5 V, source temperature 100°C and desolvation temperature 380°C. Two scan functions, MS and MS^E, in the mass range of 100–1000 Da, were performed simultaneously. The collision energy was set to 5 eV during the MS acquisition and it was ramped from 10 to 35 eV during the MS^E acquisition. MetaboLynx^TM (Waters, Milford, MA, USA) was used to aid metabolite identification.
In the present study, we further aimed to estimate the concentration of the ligand (MADAM) as well as that of the identified metabolites, among them NHMADAM, SOMADAM and NHSOMADAM, for which reference compounds were available. UHPLC/Q-ToF-MS instrumentation was employed to quantify these compounds in RLM and HLM incubations using AFM as the internal standard. In HLM incubations, the concentration of MADAM decreased from 10 μM to 7.76 ± 0.5 μM at 30 min and approximately half of MADAM (5.1 ± 0.5 μM) was still present after an incubation time of 120 min. […] Negligible amounts of the other two metabolites, SOMADAM and NHSOMADAM, were detected at these times. The concentration of SOMADAM ranged from 0.12 ± 0.02 μM to 0.15 ± 0.01 μM over time. A very slight increase in the concentration of NHSOMADAM was observed, from 0.12 ± 0.01 μM to 0.32 ± 0.03 μM at 30 min and 120 min incubation times, respectively.

[3] = Quantification of MADAM and metabolites in RLM incubations by UHPLC/Q-ToF-MS; type: in vitro ADME, rat; conditions: for Concentration in RLM incubation / Concentration in RLM incubation (in words): MADAM 10 μM initial; for Concentration in RLM incubation (in words): various incubation times
Description: as §1, §2
The parent compound MADAM was present at a concentration of 1.83 ± 0.20 μM at 10 min and from 30 min the concentration was very low (0.17 to 0.09 μM), indicating a fast metabolism in RLM. […] However, the concentration of the latter declined to 2.08 ± 0.3 μM to at 10 min and to 0.72 ± 0.31 at 60 min. The quantification in HLM experiments was not undertaken after 120 min.

[4] = Incubation of [^11C]MADAM with rat liver microsomes, radio-HPLC; type: in vitro ADME; conditions: for Percentage of unchanged [^11C]MADAM: RLM 0.5 mg/mL, NADPH, no-carrier-added
Description: as §1
(§3) Reversed phase HPLC was used to determine the percentages of radioactivity in microsomal incubation samples that corresponded to unchanged radioligand and its radiometabolites. The HPLC system consists of a Merck Hitachi D-7000 pump, an interface module, a Merck Hitachi L-7400 UV absorbance detector (254 nm) in series with a Packard Radiomatic 150TR radiodetector equipped with a 600 μL flow cell, and a Rheodyne 7125 manual injector. A Waters μ-Bondapak C18 column (7.8 x 300 mm, 10 μm) with acetonitrile (A) and ammonium formate 0.1M (B) as the mobile phase was used with a flow rate of 6.0 mL/min, according to the following gradient: 0–4.5 min, (A/B) 10/90-15/85; 4.5–5.0 min, (A/B) 15/85-20/80; 5.0–5.5 min (A/B) 20/80-45/55; 5.5–9.0 min (A/B) 45/55; 9.0–10 min (A/B) 45/55-70/30; 10.0–20.0 min (A/B) 70/30. The detected peaks were integrated and their areas were expressed as a percentage of the sum of areas of all radioactive compounds present (decay-corrected).

[5] = Incubation of [^11C]MADAM with human liver microsomes, radio-HPLC; type: in vitro ADME; conditions: for Percentage of unchanged [^11C]MADAM: HLM 0.5 mg/mL, NADPH, no-carrier-added; for Intact [^11C]MADAM (%): HLM, t = 45 min
Description: as §1, §3

[6] = Radio-HPLC of rat urine after intravenous perfusion of [^11C]MADAM/MADAM; type: in vivo; conditions: for Percentage of intact [^11C]MADAM in urine: no carrier added
Description: as §3
All animal handling and experiments were carried out in accordance with the guidelines of Karolinska Institutet and were approved by the local laboratory animal ethics committee (N 363/05 and N 373/07). The rats were housed under standard laboratory conditions with free access to laboratory food and water ad libitum. Male Sprague-Dawley rats were anesthetized with isoflurane, via an E-Z anesthesia vaporizer (5% initially and then 1.5% to maintain anesthesia, blended with 7:3 air: O2 and delivered through a Microflex non-rebreathing mask from Euthanex Corporation, Palmer, PA. The rats were placed on a heating pad (37°C) while [^11C]MADAM (52–76 MBq) and/or MADAM (25 μg to 1 mg) as a perfusion were administered intravenously; the rats were sacrificed at various time points after the administration (15, 30 and 60 min). Urine samples were collected at each time point and acetonitrile (400 μL) was added. After centrifugation at 3000g for 4 min, the supernatant was injected into the radio-HPLC (section 2.3). The radioactivity of the precipitate was measured to quantify the efficiency of the acetonitrile extraction.

[7] = set-up: method as in PMID 16157534; conditions: 50 min after injection; cited from earlier work
[8] = set-up: method as in PMID 24857865; conditions: rats euthanized 15 and 30 min post injection; cited from earlier work
[9] = set-up: method as in earlier work; conditions: human, 60 minutes after injection, cited from earlier work
[10] = set-up: method as in PMID 24857865; conditions: cited from earlier work; for Fraction of total radioactivity in plasma: macaque plasma

## [11CH3]Oc1ccccc1O[C@@H](c1ccccc1)[C@@H]1CNCCO1 [(S,S)-[^11C]MeNER]
[1]
  Effect of addition of carrier on radiometabolic profile: not affect the radiometabolic profile

## Cc1ccc(Sc2ccccc2CN(C)C)c(N)c1 [MADAM]
[2]; incubation 30 min
  Concentration in HLM incubation: 7760 ± 500 nM
[2]; incubation 120 min
  Concentration in HLM incubation: 5100 ± 500 nM
[3]; incubation 10 min
  Concentration in RLM incubation: 1830 ± 200 nM

## CNCc1ccccc1Sc1ccc(C)cc1N [NHMADAM]
[2]; incubation 30 min
  Concentration in HLM incubation: 2080 ± 400 nM
[2]; incubation 120 min
  Concentration in HLM incubation: 2890 ± 400 nM
[3]; incubation 10 min
  Concentration in RLM incubation: 2080 ± 300 nM
[3]; incubation 60 min
  Concentration in RLM incubation: 720 ± 310 nM

## CNCc1ccccc1[S+]([O-])c1ccc(C)cc1N (stereo not shown) [NHSOMADAM]
[2]; incubation 30 min
  Concentration in HLM incubation: 120 ± 10 nM
[2]; incubation 120 min
  Concentration in HLM incubation: 320 ± 30 nM
[3]
  Concentration in RLM incubation (in words): very low concentrations

## Cc1ccc(S(=O)(=O)c2ccccc2CN(C)C)c(N)c1 [SO2MADAM]
[2]; HLM, MADAM 10 μM
  Detection as metabolite of MADAM in microsomal preparations: not detected
[3]; RLM, MADAM 10 μM
  Detection as metabolite of MADAM in microsomal preparations: not detected

## Cc1ccc([S+]([O-])c2ccccc2CN(C)C)c(N)c1 (stereo not shown) [SOMADAM]
[3]
  Concentration in RLM incubation (in words): very low concentrations

## Cc1ccc(Sc2ccccc2CN(C)[11CH3])c(N)c1 [[^11C]MADAM]
[4]; incubation 1 min
  Percentage of unchanged [^11C]MADAM: 3.3 ± 1%
[4]; incubation 1 min, listed as [ ^11 C]MADAM
  Percentage of unchanged [^11C]MADAM: 3.3 ± 1% ^1
[4]; incubation 4 min
  Percentage of unchanged [^11C]MADAM: no [^11C]MADAM was detected
[4]; RLM experiments, control without either NADPH or microsomes
  Radiometabolites in control incubations: No radiometabolites were detected
[4]; RLM, t = 1 min, carrier MADAM 10 μM
  Intact [^11C]MADAM (%): 78 ± 4%
[5]; incubation 10 min
  Percentage of unchanged [^11C]MADAM: 51 ± 4%
[5]; incubation 10 min, listed as [ ^11 C]MADAM
  Percentage of unchanged [^11C]MADAM: 51 ± 4%
[5]; incubation 45 min
  Percentage of unchanged [^11C]MADAM: 35 ± 1%
[5]; incubation 45 min, listed as [ ^11 C]MADAM
  Percentage of unchanged [^11C]MADAM: 35 ± 1%
[5]; incubation 90 min
  Percentage of unchanged [^11C]MADAM: 16 ± 1%
[5]; incubation 90 min, listed as [ ^11 C]MADAM
  Percentage of unchanged [^11C]MADAM: 16 ± 1%
[5]; HLM experiments, control without either NADPH or microsomes
  Radiometabolites in control incubations: No radiometabolites were detected
[5]; carrier MADAM 1 μM
  Intact [^11C]MADAM (%): 58 ± 2%
[5]; carrier MADAM 10 μM
  Intact [^11C]MADAM (%): 80 ± 5%
[6]; high dose of MADAM approximately 1 mg perfused
  Radiometabolites by radio-HPLC or UHPLC/Q-ToF-MS: no radiometabolites were detected
[6]; i.v. perfusion 15 min, carrier MADAM 25 μg
  Percentage of unchanged [^11C]MADAM in urine: 16%
[6]; i.v. perfusion 15 min, carrier MADAM 125 μg
  Radiometabolites in urine: no radiometabolites were observed
[6]; i.v. perfusion 15 min
  Percentage of intact [^11C]MADAM in urine: 9%
[6]; i.v. perfusion 30 min
  Percentage of intact [^11C]MADAM in urine: undetectable
[6]; i.v. perfusion 60 min
  Percentage of intact [^11C]MADAM in urine: undetectable
[6]; more than 25 μg carrier, perfusion time 30 and 60 min
  Radiometabolites in urine: no radiometabolites were detected
[7]
  Percentage of unchanged radioligand in human plasma: approximately 40%
[8]
  Radioactive species in rat brain by radio-HPLC: only one radioactive peak corresponding to [^11C]MADAM

## Cc1ccc(C2CC3CCC(C2C(=O)O[11CH3])N3CC=CI)cc1 (stereo not shown) [[^11C]PE2I]
[1]
  Effect of addition of carrier on radiometabolic profile: not affect the radiometabolic profile

## [11CH3]N1CCc2cc(Cl)c(O)cc2C2c3ccccc3CCC21 (stereo not shown) [[^11C]SCH 39166]
[9]; high specific radioactivity
  Percentage unchanged in plasma: approximately 30%
[9]; low specific radioactivity
  Percentage unchanged in plasma: ~15%

## Cc1ccc(S(=O)(=O)c2ccccc2CN(C)[11CH3])c(N)c1 [[^11C]SO2MADAM]
[10]; macaque plasma after injection of [^11C]MADAM
  Detection in plasma as further oxidation product: No further oxidation to [^11C]SO2MADAM was detected

## Cc1ccc([S+]([O-])c2ccccc2CN(C)[11CH3])c(N)c1 (stereo not shown) [[^11C]SOMADAM]
[10]; 4 min after injection of [^11C]MADAM
  Fraction of total radioactivity in plasma: 5%
[10]; 15 min after injection of [^11C]MADAM
  Fraction of total radioactivity in plasma: 1%
